Reference: US8575128B2, “Methods for transdifferentiation of body tissues” (priority 1999, dated 2013)
Where “and” joins values, the source holds several entries; their conditions need not be identical. Equal values may be shown once. Entries after “also recorded” stand apart in the source; their conditions may differ. Where no end group is shown, it is not given here.

Legend:
[1] = tested on: melanocytes; details: Dupin et al. 2000; cited from earlier work
[2] = tested on: melanophores and xanthophores; details: for Cells containing both melanosomes and pterinosomes (melanophore to xanthophore transdifferentiation), light microscopy: Gomori trichrome stained skin, zinc acetate 7 and 12 days; for Cells containing both melanosomes and pterinosomes (melanophore to xanthophore transdifferentiation), light microscopy / Time on feeding at which the animal died: substance sprinkled on food every other day; for Cells containing both melanosomes and pterinosomes (melanophore to xanthophore transdifferentiation), light microscopy / Colour of the animal by inspection: cGMP 22 days, GMP 67 days; for Identification as transdifferentiation agent by the assay: summary statement; for Direction of chromatophore transdifferentiation from macro observations and photographs of whole animals: fed as in Examples A-C
Source text: Larval Axolotls have an epidermis on a thin basement membrane, under which is a thick collagen layer (green when stained with Gomori trichrome for light microscopy.) Only 3 types of cells are present immediately below and slightly embedded in the collagen layer-(a) fibroblasts, which are generally fusiform and have a characteristic light and ultrastructural appearance, (b) melanophores, which contain numerous round or oval black melanosomes, as well as some premelanosomes, and (c) xanthophores, which, contain organelles known as pterinosomes. These appear as vacuoles in light microscopy and vacuoles with wispy or concentric layered material in electron microscopy. In general, melanosomes are normally found only in melanophores and pterinosomes in xanthophores.
All Axolotls were 3-5 cm in length at the beginning of the experiment and were obtained from the Indiana University Axolotl Colony, Bloomington, Ind.).
Temperature was 22 °C with a 12 hour light/12 hour dark
photoperiod. Water was changed daily before feeding, and when the animals were removed from feeding an hour later. They were fed about every day. Every other day, the experimental substance was sprinkled on the beef or fish pellets. All experimental reagents were obtained from Sigma (St. Louis Mo.). […] For feeding, beef liver was placed on the raised bottom partially in and partially out of the water. This permitted the animal to sense the food in the water but prevented the cGMP sprinkled on the beef from washing away. […] For feeding the animals were transferred to smaller plastic containers (weighing canoes) which have one side sloped. The pellets were placed on the slope, partially in and partially out of the water. This permitted the animal to sense the food in the water but prevented the cGMP sprinkled on the pellet from washing away. Deer Park Spring Water (Breingsville, Pa.) was used exclusively.
The animals were observed about weekly under an Olympus SZ stereomicroscope and most were photographed prior to sacrifice or shortly (hours) after death. Animals were fixed in 10% Formalin and 4 mm punch biopsies of skin were processed routinely for histology (Gomori Trichrome) by Charles River Laboratories (Wilmington, Mass.). Slides were examined in an Olympus (Woodbury, N.Y.) BX40 microscope.
Three animals (a control and two GMP fed animals) were biopsied with a 2 mm punch and fixed in Trump=s fixative for 24 hours, and processed routinely for electron microscopy. They were postfixed in 2% osmium tetroxide, dehydrated in a serials of alcohols and embedded in Epon-Araldite (1:1). Processing and photography were performed at the Electron Imaging Facility, Rutger=s University, Piscataway, N.J.

[3] = tested on: human melanoma cell line G-361; test: Transdifferentiation of G-361 melanoma cells in culture; format: cell-based; set-up: Phenotypic changes in the cell population: dose or concentration left out as unconfirmed; details: 7 days
Method: A human melanoma cell line. G-361, was purchased from the American Type Culture Collection (ATCC catalog number CRL-1424, Manassas, Va.) in a cryopreserved state. Upon receipt, the tube containing the frozen cells was rapidly thawed in a 371C water bath by swirling the bottom ⅓ of the tube for less than 2 minutes. All subsequent steps were conducted using standard methods of sterile technique. The cells were transferred to a T-25 flask containing 5 ml of pre-warmed McCoy=s 5A modified medium (Life Technologies, Rockville, Md.) and incubated at 371 C in a humidified CO2 incubator. After approximately 24 hours, the original medium was removed and replaced with fresh medium and the cells allowed to grow until they reached approximately 70-80% confluency with the medium being replaced every 2-3 days as needed. At this point, the cells were subcultured into Leighton tubes at low cell densities using well known typsin-EDTA subculturing techniques. After subculturing, the cells were allowed to re-establish their growth for 48 hours prior to administration of drugs.
Few cells resembled a normal melanocyte phenotype. […] The majority of the cells appeared to be epithelial in morphology. […] The microscopic phenotypic heterogeneity observed was compatible with karyotypic analysis provided by ATCC showing a heterogeneous population with regards to chromosome number.
Later, beta-carotene in tetrahydrofuran was added to McCoy=s 5A modified medium to a final concentration of about 33 mg/ml with a final concentration of 0.5% THF. This supplemented medium was added to the Leighton tubes after removal of un-supplemented medium and was replaced every 2 days during the 7 clay experimental period. At the end of 7 days, the cultures were fixed in methanol and the cover slips were Giemsa stained.
Methods: The melanoma cell line G-361, described in Example 1.4 above was used Guanosine was added to McCoy=s 5A modified medium to a final concentration of 3 mg/ml. This supplemented medium was added to the Leighton tubes after removal of unsupplemented medium and was replaced every 2 days during the 7 day experimental period. At the end of 7 days, the cultures were fixed in methanol and the cover slips were Giemsa stained.
Methods: The melanoma cells line G-361, described in Example 14 above was used Guanosine was added to McCoy=s 5A modified medium to final concentration of 3 mg/ml. This supplemented medium was added to the Leighton tubes after removal of un-supplemented medium and was replaced every 2 days for 7 days. Beta-carotene in THF was added to McCoy=s 5A modified medium at a final concentration of 33 mg/ml with a final concentration of 0.5% THF. […]

[4] = tested on: chromatophores; details: literature reports (Frost; Thibaudeau and Holder; Bagnara); cited from earlier work

Molecule	Cells containing both melanosomes and pterinosomes (melanophore to xanthophore transdifferentiation), light microscopy [2]	Identification as transdifferentiation agent by the assay [2]	Direction of chromatophore transdifferentiation from macro observations and photographs of whole animals [2]	further results
Endothelian 3: Factor reported by Dupin et al. to induce conversion of melanocytes into glial cells (CTCFTYKDKECVYYCHLDIIW; ends and bridges not checked; cysteine pairing not given here; UniProt P14138 97-117, looked up)				Conversion of melanocytes into glial cells [1]: induce the conversion of melanocytes into glial cells
CC(=O)[O-].CC(=O)[O-].[Zn+2] [Zinc Acetate, reference compound]	cells with both melanosomes and pterinosomes	transdifferentiation agents		Time on feeding at which the animal died [2]: 7 days and 12 days
Cl.Cl.Cl.Cl.NCCNCCNCCN [trien, triethylenetetramine tetrahydrochloride]			transdifferentiate melanophores to xanthophores	
Nc1cc[nH]c(=O)n1 [cytosine]			transdifferentiates xanthophores to melanophores	
Nc1nc2c(ncn2[C@@H]2O[C@H](COP(=O)(O)O)[C@@H](O)[C@H]2O)c(=O)[nH]1 [GMP, guanosine 5′-monophosphate]	clear evidence of transdifferentiation by the presence of cells containing both pterinosomes and melanosomes; also recorded: transdifferentiating from a melanocyte into a xanthophore	transdifferentiation agents		Colour of the animal by inspection [2]: markedly lighter by inspection and had a yellow hue; Cells and organelles in skin, electron microscopy ([2]; fed 67 days): many cells in which both melanosomes and pterinosomes were, present; also recorded: organelles which appeared to be hybrids of melanosomes and pterinosomes
O[C@H]1[C@H](O)[C@@H](O)[C@H](O)[C@@H](O)[C@H]1O [myo-inositol]		transdifferentiation agents	transdifferentiate melanophores to xanthophores	
Nc1nc2c(ncn2[C@@H]2O[C@@H]3COP(=O)(O)O[C@H]3[C@H]2O)c(=O)[nH]1 [cGMP, guanosine 3′,5′-cyclic monophosphate]	presence of melanosomes and pterinosomes in several cells	transdifferentiation agents		Colour of the animal by inspection [2]: lighter by inspection; Time on feeding at which the animal died [2]: 22 days
CC1=C(/C=C/C(C)=C/C=C/C(C)=C/C=C/C=C(C)/C=C/C=C(C)/C=C/C2=C(C)CCCC2(C)C)C(C)(C)CCC1 [Beta-carotene, beta-carotene]				Cell death compared with control cultures ([3]; about 33 mg/ml in 0.5% THF): a large segment of the starting population died; Mitotic figures in remaining cell population ([3]; about 33 mg/ml in 0.5% THF): no mitotic figures observed; Morphology of remaining cells ([3]; about 33 mg/ml in 0.5% THF, Giemsa stain): most had triangular morphology and a large nucleus, consistent with neural cells, or were fusiform in shape, consistent with neuroglial or neurilemmal (Schwann) cells
Nc1nc2c(ncn2[C@@H]2O[C@H](CO)[C@@H](O)[C@H]2O)c(=O)[nH]1 [guanosine]			transdifferentiate melanophores to xanthophores	Phenotypic changes in the cell population ([3]; Giemsa stain): many cells with an increased nuclear to cytoplasmic ratio; also recorded: increased number of triangular cells consistent with neural phenotypes; Transdifferentiation of Axolotl chromatophores [4]: acted as a transdifferentiation agent; also recorded: transdifferentiate from one pigmented cell type to another
